{"source": "patent US20240384350A1", "about": "“METHODS OF TREATING CANCER WITH KINASE INHIBITORS” (BOARD OF REGENTS, THE UNIVERSITY OF TEXAS SYSTEM, priority 2021, published 2024)", "system": "EGFR mutations spanning exons 18-21", "experiment": "Ba/F3 panel of 76 cell lines expressing EGFR mutations, selectivity over WT EGFR by structure-function group", "assay_type": "cell-based", "conditions": "Ex20ins mutations, FIG. 5A", "source_text": "To determine the effect of EGFR mutations on TKI sensitivity, a panel of 76 cell lines expressing EGFR mutations spanning exons 18-21 was generated and screened against 18 known EGFR inhibitors representing 1st (non-covalent), 2nd (covalent), and 3rd (covalent, T790M targeting) generation TKIs, and compounds under investigation for Ex20ins. […] For the various mutations, structure-function based groups were more predictive of drug sensitivity than exon based groups as determined by spearmen correlations (p<0.0001, FIG. 1F, FIG. 2). […]\nAfter 48-72 hours of transduction, 2 μg/ml puromycin (Invitrogen) was added to Ba/F3 cell lines in complete RPMI. […] Plates were incubated for a minimum of 10 minutes, and bioluminescence was determined using a FLUOstar OPTIMA plate reader (BMG LABTECH). […] Statistical differences between groups were determined by ANOVA as described in the figure legends. […]", "data": [{"smiles": "CN(C)C/C=C/C(=O)Nc1cc2c(Nc3ccc(Cl)c(Br)c3)ncnc2cn1", "note": "[Tarlox-TKI]", "values": [{"measurement": "sensitivity in vitro", "value": "sensitive"}]}]}
